This is an account of results in patent US20040132764A1, “Antibiotics for the treatment of infections in acidic environments” (Morphochem Aktiengesellschaft fuer Kombinatorische Chemie, priority 2002, published 2004).

Values after ≈ are worked out from the molar mass of the structure shown. Where two headings read alike, the source gives them in different places.

In the experiment the test system is bacterial strains from the Morphochem collection. The experiment can be described thus: MIC determination by microdilution method (NCCLS guidelines, IsoSensitest broth) with pH of the test medium varied. The class given is cell-based. Particulars: strain not named. The procedure: MICs (minimal inhibitory concentrations) were determined by a microdilution method following NCCLS guidelines, except that IsoSensitest broth (Oxoid; Basingstroke, UK) was used (National Committee for Clinical Laboratory Standards “Methods for Dilution Antimicrobial Susceptibility Tests for Bacteria that Grow Aerobically”, 4th ed.; Approved standard: NCCLS Document M7-A4; National Committee for Clinical Laboratory Satandars: Villanova, Pa., USA, 1997). The medium was supplemented with 3% lysed horse blood for fastidious organisms. Serial dilutions in 96-well plates were prepared with the help of a Biomek 2000 robot. The pH of the test medium was varied from 7.8 to 6.4. The bacterial strains used were from the Morphochem collection. Clinical isolates were originally obtained from the Kantonspital Basel, Switzerland, and from other European and US hospitals.
pH-dependent antibacterial activity (MIC (μg/mL) at pH): […]

Setting [1] is: pH 6.4 of test medium, read-out: pH-dependent antibacterial activity (MIC at pH) 6.4.
Setting [2] is: pH 6.8 of test medium, read-out: pH-dependent antibacterial activity (MIC at pH) 6.8.
Setting [3] is: pH 7.4 of test medium, read-out: pH-dependent antibacterial activity (MIC at pH) 7.4.
[4] abbreviates: pH 7.8 of test medium, read-out: pH-dependent antibacterial activity (MIC at pH) 7.8.

Regarding `CC(=O)NC[C@H]1CN(c2ccc(N3CCN(c4cc5c(cc4F)c(=O)c(C(=O)O)cn5C4CC4)CC3)c(F)c2)C(=O)O1` [Example 1, 7-(4-{4-[5-(acetylamino-methyl)-2-oxo-oxazolidin-3-yl]-2-fluoro-phenyl}-piperazin-1-yl)-1-cyclopropyl-6-fluoro-4-oxo-1,4-dihydro-quinoline-3-carboxylic Acid], the MIC reads like this: under setting [1], 0.03 µg/mL (≈ 0.0516 µM); under setting [2], 0.125 µg/mL (≈ 0.215 µM); under setting [3], 0.25 µg/mL (≈ 0.43 µM); under setting [4], 0.5 µg/mL (≈ 0.86 µM).
In the same order, the values of `CC(=O)NC[C@H]1CN(c2ccc(N3CCN(c4nc5c(cc4F)c(=O)c(C(=O)O)cn5C4CC4)CC3)c(F)c2)C(=O)O1` [Example 10] are 0.125 µg/mL (≈ 0.215 µM), 0.25 µg/mL (≈ 0.429 µM), 0.5 µg/mL (≈ 0.858 µM) and 1 µg/mL (≈ 1.72 µM).
For `CC(=O)NC[C@H]1CN(c2ccc(N3CCOCC3)c(F)c2)C(=O)O1` [linezolid, reference compound], the MIC amounted to 0.5 µg/mL (≈ 1.48 µM) under setting [1], 0.5 µg/mL (≈ 1.48 µM) under setting [2], 1 µg/mL (≈ 2.96 µM) under setting [3] and 1 µg/mL (≈ 2.96 µM) under setting [4].
Regarding `CC(=O)NC[C@H]1CN(c2ccc(N[C@@H]3CCN(c4cc5c(cc4F)c(=O)c(C(=O)O)cn5C4CC4)C3)c(F)c2)C(=O)O1` [Example 4], the MIC runs as follows: under setting [1], 0.03 µg/mL (≈ 0.0516 µM); under setting [2], 0.06 µg/mL (≈ 0.103 µM); under setting [3], 0.25 µg/mL (≈ 0.43 µM); under setting [4], 0.5 µg/mL (≈ 0.86 µM).
